# Measurements: patent US20070161546A1, “Methods and compositions for treatment of cancer” (priority 2005, published 2007)
# Legend:
# [1] = test system: human monocyte-derived macrophages (MDMs); settings: p38 MAPK inhibitor added to Z-100; cited from earlier work
# [2] = test system: Ehrlich ascites tumor cell; settings: mice, 14 days after inoculation with cancer cells
# From the text: The injection is repeated over a period of several days. Fourteen days later after the initial inoculation with cancer cells, each of the treated mice are anesthetized.
# The solid tumor growing in the abdominal section is carefully isolated from other organ tissues, cleaned using filter papers and weighed. For the test and the control group, the average weight of the cancerous tissue was tabulated and evaluated by the t-test.
SMILES,effect on Z-100-induced effects (repression of HIV-1 replication) [1],"anticancer effect (average weight of the cancerous tissue), agent alone [2]"
C[S+]([O-])c1ccc(-c2nc(-c3ccncc3)c(-c3ccc(F)cc3)[nH]2)cc1 (centres unmarked) [SB 203580],alleviated,–
"O=P1(N(CCCl)CCCl)NCCCO1 (centres unmarked) [cyclophosphamide, Cyclophosphamide]",–,anticancer effects of similar magnitude
